Tested on: Patients with LHON
Assay: Example 2: 12-month double blind, placebo controlled study of acetyl L-carnitine, visual acuity
Assay type: in vivo, human
Conditions: for Visual Acuity Change, Diff / Visual Acuity Recovery, Diff: ALC 2 g/day orally vs placebo
Description: 30 Patients with LHON were enrolled. To be eligible, participants were required to meet the following inclusion criteria: both sexes, age ≧20 years and ≦60 years, diagnosis of Leber's optic neuropathy assessed by the presence of at least one of the three most common LHON pathogenic mutations (11778/ND4, 3460/ND1, 14484/ND6), and duration of disease greater than 2 years.
The study treatment trial was 12-month, double blind, placebo controlled with participants randomized to receive acetyl L-carnitine (2 g/day orally) or placebo.
The primary efficacy end point for the study was the best recovery in visual acuity in either eye measured by change in logMAR (logarithm of Minimal Angle of Resolution) in study eyes comparing the acetyl-L-carnitine treatment group with the placebo treatment control group 6 and 12 months after enrolment. Secondary efficacy outcome was the patients' best visual acuity at 6 and 12 months compared to best visual acuity at baseline.

CC(=O)O[C@H](CC(=O)[O-])C[N+](C)(C)C [ALC, acetyl-L-carnitine]
Visual Acuity Change, Diff (T6 (6 months), p < 0.05): Diff = 14 letters
Visual Acuity Recovery, Diff (T6 (6 months), p < 0.05): Diff = 10 letters
Visual Acuity Change, Diff (T12 (12 months), p < 0.01): Diff = 18 letters
Visual Acuity Recovery, Diff (T12 (12 months), p < 0.01): Diff = 12 letters
improvement of visual acuity recovery (in words) (vs placebo, after 6 months (T6) and 12 months (T12)): significant difference in improvement
visual acuity of eyes (in words) (vs placebo, both time points T6 and T12): significantly improved
